# The NIST ThermoML archive (doi:10.1021/je060157s)
# Where “and” joins values, the source holds several entries; their conditions need not be identical. Identical values can stand only once. Numbers after ± are expanded uncertainties.
# Settings: Liquid
Compound,vapor or sublimation pressure (293.15 K) [kPa],vapor or sublimation pressure (293.33 K) [kPa],vapor or sublimation pressure (293.34 K) [kPa],vapor or sublimation pressure (303.15 K) [kPa],vapor or sublimation pressure (303.35 K),vapor or sublimation pressure (313.15 K) [kPa],vapor or sublimation pressure (313.37 K),vapor or sublimation pressure (323.15 K) [kPa],vapor or sublimation pressure (323.39 K),vapor or sublimation pressure (333.15 K) [kPa],vapor or sublimation pressure (333.39 K),vapor or sublimation pressure (343.15 K) [kPa],vapor or sublimation pressure (343.42 K),vapor or sublimation pressure (353.15 K) [kPa],vapor or sublimation pressure (353.43 K),vapor or sublimation pressure (363.15 K) [kPa],vapor or sublimation pressure (363.43 K) [kPa]
CC(O)c1ccccc1 (stereo not given) [1-phenylethanol],0.006 ± 0.006,0.009952 ± 0.0035,0.009956 ± 0.0035,0.016 ± 0.007,0.02451 ± 0.0047 kPa and 0.0219 ± 0.0046 kPa,0.041 ± 0.009,0.06281 ± 0.0061 kPa and 0.06414 ± 0.0062 kPa,0.095 ± 0.014,0.1472 ± 0.013 kPa and 0.136 ± 0.013 kPa and 0.1419 ± 0.013 kPa,0.203 ± 0.021,0.2635 ± 0.016 kPa and 0.2649 ± 0.016 kPa,0.404 ± 0.033,0.515 ± 0.022 kPa and 0.5189 ± 0.022 kPa,0.759 ± 0.055,0.902 ± 0.032 kPa and 0.9053 ± 0.032 kPa,1.352 ± 0.079,1.556 ± 0.041
O [water],2.333 ± 0.091,,,4.24 ± 0.12,,7.376 ± 0.15,,12.34 ± 0.22,,19.92 ± 0.31,,31.17 ± 0.45,,47.38 ± 0.66,,70.18 ± 0.94,
